Test results reported in US11426444B2, “Compositions, methods and uses for treating post-traumatic stress disorder” (priority 2017, dated 2022).
Ends that are not written are not given here.

Legend:
Male, Swiss Webster mice = test: Naloxone-precipitated morphine withdrawal, CRH driven rodent model 2 (Example 6); type: in vivo, mouse
Experimental: A similar study was performed using a CRH antagonist (CP154, 526) in the precipitated withdrawal model.
Male, Swiss Webster mice were treated with seven (7) doses of Morphine 3.2 mg/kg i.p. (d1×5 and d2×2). Animals were then administered a test substance subcutaneously one hour after the last morphine injection with either: (i) nothing (morphine only); (ii) CRH antagonist (CP154, 526) or (iii) TCAP-1 and then an hour after the test substance the animals were administered naloxone i.p at 10 mg/kg, to induce withdrawal.
Two hours after last morphine treatment (i.e. after administration of Naloxone) the mice were immediately placed individually in an observation area and video recorded 20 minutes. The number of jumps (lifting of all feet off the ground) documented for 20 minutes.
(For description on CP154, 526 see for example, CNS Drug Reviews, Vol. 9, No. 1, pp 57-96, Seymour, Patricia A., et al, “The Pharmacology of CP-154,526, A Non-Peptide Antagonist of the CRH1 Receptor: A Review, incorporated herein by reference.)

[1] = system: Male adult Sprague-Dawley rats; test: Modified Open Field Test with noise pollution (Example 1); type: in vivo, rat
Description: Male adult Sprague-Dawley rats (˜350 g) treated for 3 months (1 injection/week) with either vehicle (0.9% saline) or TCAP-1 (25 nmoles/kg) were used in Example 1.
Behaviour—Modified Open Field Test
The Open Field Test is a behavioral test paradigm used to investigate anxiety-related behaviours in rodents (Bailey K R and Crawley J N, 2009, in: Buccafusco J J, editor. Source Methods of Behavior Analysis in Neuroscience. 2nd edition. Boca Raton (Fla.): CRC Press/Taylor & Francis; 2009. Chapter 5.). In this experiment, the animals were exposed to high frequency noise pollution to induce a stress response while the animals were in the OFT apparatus. The test was performed one week post last injection of the long-term (3 month) treatment with either vehicle (0.9% saline) or TCAP-1 (25 nmoles/kg). Animals were individually placed in a plexiglass box (50 L×50 W) and digitally recorded and tracked for five (5) minutes. In the centre of the box is a designated section termed the centre zone. Behaviours are then analyzed from videos and recorded for time spent in centre zone, distance travelled in centre zone, and total distance travelled. Moreover, peering behaviour, grooming behaviour, and rearing behaviour were also analyzed (definitions below).
(a) Peering: Digital recordings were analyzed for Peering behaviour. Peering behaviour was defined as the specific notion where animals would stand on their back hind limbs in order to look over the side of the glass wall (i.e, The event where an animal rears specifically to peer over the side of the apparatus). This behaviour can be interpreted as an explorative or anti-fear response.
(b) Grooming: Digital recordings were analyzed for Grooming behaviour. Grooming behaviour was defined as the animals cleaning their face or bodies, i.e., the event where an animal grooms himself (usually his hands and face).
(c) Rearing: Digital recordings were analyzed for Rearing behaviour. Rearing behaviour was defined as an event where animals stand on their hind limbs (i.e., the event where an animal gets on his hind limbs in exploration). This behaviour is interpreted as an explorative behaviour, which is a low anxiety response.
Animals were digitally recorded and tracked for five (5) minutes in the Open Field Test with noise pollution. The noise pollution was large construction noise, intermittent and not at predictable intervals. […] As rearing behaviour is highly associated with anti-anxious behaviour, this corroborates the data indicating TCAP-1 is reducing stress-related behaviour.

C57Bl/6J mice [2] = test: Chronic social defeat (CSD) model (Example 3); type: in vivo, mouse; details: subcutaneous once a day days 1-7; for attack latency (time between retreat and evaluating the predator): FIG. 8
Description: (§1) The mouse chronic social defeat (“CSD”) model has been accepted as a model of PTSD [Flandreau, et al, 2018]. This model involves exposure of C57Bl/6J mice to chronic stress by aggressor mice (male CD-1 ex-breeders) for a defined period of 15 days. Starting from day 15, mice were further tested in the open field (OF) model.
Experimental Set Up of Mice.
CD-1 mice were housed, one mouse per cage, during the experiments. C57Bl/6J mice were housed in pairs while not subjected to CSD. Mice are acclimated to the animal facility for minimum 5 days before the onset of the study.
CD-1 aggressor mice are determined by using the procedures by Golden et al. (2011). Screening involves three days of selection testing. After the screening and selection of 80 aggressor mice, the chronic social defeat (CSD) paradigm was conducted.
The CSD mouse group were subcutaneously injected once a day with vehicle or TCAP-1 days 1-7.
Under dim lighting a CSD mouse was subjected to direct exposure with a CD-1 aggressor mouse. […] The latency to the first attack was also recorded, and time needed to gain 60 s physical attack time. After the 10 min session, CSD mice were exposed to CD-1 mice through perforated transparent divider for 24 h. If the CD-1 mice are very aggressive (if wounding consistently exceeds veterinary guidelines), the exposure time can be shortened to 5 min or less.
This setup allows direct and continued olfactory, visual, auditory exposure for the rest of the day. On the following day, a CSD mouse is placed in a cage in similar fashion with 10 min direct exposure followed by chronic exposure through divider. Cycle is repeated for 15 days, replacing the […] with a new one every day until day 15. Thereafter, CSD mice remain caged next to the same CD-1 mice without any further attack sessions or rotations for days 16-17.
Attack latency is the period between retreat and confrontation. […] Aggressive contact time reflects the number of direct contacts. FIG. 9 illustrates that administration of TCAP-1, the animal will approach the predator and not retreat.

C57Bl/6J mice [3] = test: Open field motor activity (OF) after CSD (Example 4); type: in vivo, mouse; details: 15 min open field
Experimental: as §1
Behavioral tests such as Open field motor activity (OF) were also conducted. See the schematic of FIG. 7.
In this model set up the test was conducted 15 days after the last CSD session. The mouse was placed on the Open Field apparatus floor in the center of empty arena for 15 min without exposure to any other stimuli. The following parameters were calculated from the data: distance moved, number of vertical rearing's, velocity and % resting time (no movement activity). Open field activity chambers (Med Associates Inc, St Albans, Vt.; 27×27×20.3 cm) are equipped with IR beams with red light conditions. A mouse is considered to have no movement activity when the mouse is not breaking two adjacent beams consecutively (distance between two adjacent beams is about 1.7 cm).

Swiss Webster mice = test: Naloxone-precipitated morphine withdrawal, CRH driven rodent model 1 (Example 5); type: in vivo, mouse
Experimental: In one model, Swiss Webster mice were stressed following chronic opiate administration.
In this Example, TCAP-1 was administered at the graded doses, daily for three days prior to administration of morphine. Morphine was then administered at 3.2 mg/kg i.p. on day 4 (5 times) and 5 (twice), and then one hour the last dose of morphine, naloxone is administered i.p at 10 mg/kg, to induce withdrawal.
One hour after last morphine treatment (i.e. after administration of Naloxone) the mice were immediately placed individually in an observation area and video recorded 20 minutes. The number of jumps (lifting of all feet off the ground) documented for 20 minutes

Swiss Webster mice (SW) = test: Restraint stress model, corticosterone (Example 7, FIG. 14 A); type: in vivo, mouse; details: restraint 30-60 minutes on successive days; dosed once at day 1 and day 2; effect in 5 days
Experimental: (§2) The inventors, extended the behavioural activity in a severe restraint model the changes in a stress related biomarker such as corticosterone is depicted in FIG. 14. (See for example de Pablos, R. N. et al (2014), Creating a Rat model of Chronic Variate Stress. Bio-protocol 4(23): e1315.DOI).
(§3) In this model animals, Swiss Webster mice (SW) (FIG. 14 A) and Sprague-Dawley rat (SD) (FIG. 14 B) were restrained in confined spaces for upwards of 30-60 minutes on successive days. TCAP-1 was administered once at day 1 and at day 2 in the 5-day model.

Sprague-Dawley rat (SD) = test: Restraint stress model, corticosterone (Example 7, FIG. 14 B); type: in vivo; details: amidated human TCAP-1 (SEQ ID NO: 2); restraint 30-60 minutes on successive days; dosed at day 1 and day 2; effect within 3 days
Description: Amidated mouse TCAP-1 (SEQ ID NO: 1) was suspended in 0.9% saline. [[…], Ambiopharm] for subcutaneous injection in the interscapular region and used in Examples 1, Amidated human TCAP-1 (SEQ ID NO: 2) was suspended in 0.9% saline. [10 nmol/Kg, Ambiopharm] was used in Example 7, for the SD-rat (FIG. 14 B).
as §2, §3

[4] = 25 nmoles/kg, 1 injection/week for 3 months, 5 min, vs vehicle

| Compound | symptomology of precipitated withdrawal (Male, Swiss Webster mice; small molecule CRH antagonist, 20 mg/Kg subcutaneously) | time in the centre zone ([1]; 25 nmoles/kg, 1 injection/week for 3 months, tested one week post last injection, 5 min, vs vehicle) | entries into centre zone [1, 4] | grooming behaviour [1, 4] | peering behaviour [1, 4] | rearing behaviour [1, 4] | stress-related behaviour in the Open Field Test with noise pollution ([1]; chronic TCAP-1 administration) | attack latency (time between retreat and evaluating the predator) (C57Bl/6J mice [2]) | attack latency (time between retreat and evaluating the predator) (C57Bl/6J mice [2]; listed as TCAp-1) | aggressive contact time (number of direct contacts) (C57Bl/6J mice [2]; FIG. 9) | anxiety toward surroundings (C57Bl/6J mice [3]) | number of vertical rearings (C57Bl/6J mice [3]; FIG. 10) | jumping activity (number of jumps per 20 minutes) following naloxone (Swiss Webster mice; graded doses daily for three days prior to morphine 3.2 mg/kg i.p., naloxone 10 mg/kg i.p., FIG. 12) | symptomology of precipitated withdrawal (Swiss Webster mice; mice stressed following chronic opiate administration) | number of jumps per 20 minutes after naloxone (Male, Swiss Webster mice; TCAP-1 250 nmole/Kg subcutaneously one hour after last morphine, versus CP154, 526 at 20 mg/Kg, FIG. 13) | rise in corticosterone (Swiss Webster mice (SW)) | rise in corticosterone (Sprague-Dawley rat (SD)) |
| --- | --- | --- | --- | --- | --- | --- | --- | --- | --- | --- | --- | --- | --- | --- | --- | --- | --- |
| CCCCN(CC)c1nc(C)nc2c1c(C)cn2-c1c(C)cc(C)cc1C [CP154, 526, reference compound] | limited success |  |  |  |  |  |  |  |  |  |  |  |  |  |  |  |  |
| Teneurin C-Terminal Associated Peptide-1 (QQLLGTGRVQGYDGYFVLSVEQYLELSDSANNIHFMRQSEI-NH2; not fully specified) [TCAP-1] |  | significantly more time in the centre zone | more entries into centre zone | not found to be significantly different between groups | not found to be significantly different between groups | significantly increased | significantly decreased stress-related behaviour | attack latency increased | reduces the time between retreat and evaluating the predator | increased | reduced anxiety toward their surroundings | reduced rearing events were observed | dose dependent reduction in jumping activity | efficiently modulated | efficacy | modulated the rise in corticosterone | modulated the rise in corticosterone |
